Data from US20070020340A1, “Fish oil products for reducing cholesterol, low density lipoprotein, and hypertension” (priority 2005, published 2007).

Assays:
[1] = compared with oleuropein, tyrosol, hydroxytyrosol; cited from earlier work
interleukin-1-beta = settings: cited from earlier work
[2] = test system: men with moderately elevated cholesterol who also suffered from moderate to high hypertension; assay: 16-week study of fish oil (EPA/DHA) with or without allicin, oleuropein or Policosanol in eight treatment groups; format: in vivo, human; settings: after sixteen weeks of daily treatment
Description: Eighty men with moderately elevated cholesterol who also suffered from moderate to high hypertension, were assigned to one of eight treatment groups, and followed for 16 weeks. The EPA and DHA administered was from fish oil and in free fatty acid form containing 3 grams of EPA and 2 grams of DHA, administered daily. Group one received fish oil alone. Group two received the same amount of fish oil with 5 mg allicin dissolved in the fish oil. Group three received the same amount of fish oil with 100 mg oleuropein dissolved therein. Group four received the same amount of fish oil with 10 mg of Policosanol dissolved therein. Group five received soft gelatin capsules with sunflower oil rather than fish oil. Group six received 5 mg of allicin dissolved in sunflower oil. Group seven received 100 mg oleuropein dissolved in sunflower oil. Group eight received Policosanol dissolved in sunflower oil. After sixteen weeks of treatment, the results were as follows: • 1. Group one registered 5% lowering of serum triglycerides. There was no change in HDL cholesterol and an 8% increase in LDL. Systolic blood pressure dropped by average of 3% and diastolic blood pressure dropped by average of 2%. • 2. Group two registered a 30% lowering of triglycerides, 12% decrease in LDL, and 8% increase in HDL. Both systolic and diastolic blood pressure dropped by an average of 10% • 3. Group three registered a 25% lowering of serum triglycerides, 10% decrease of LDL, and 10% increase in HDL. Systolic pressure dropped by average of 12% and diastolic pressure dropped by average of 10% • 4. Group four registered 20% lowering of serum triglycerides, 12% decrease of LDL, and 8% increase in HDL. Systolic and diastolic pressure dropped by average of 10%. • 5. Group five had no change in any of the parameters tested. • 6. Group six registered 3% lowering of serum triglycerides, 6% lowering of LDL and 2% increase of HDL. Sistolic and diastolic pressure dropped by average of 5% • 7. […] Systolic blood pressure dropped by average of 7% and diastolic pressure dropped by average of 5%. • 8. Group eight registered 10% lowering of serum triglycerids, 8% lowering of LDL, and 5% increase of HDL.

hyperlipidemic rabbits = settings: cholesterol-rich diet; cited from earlier work

Row | SMILES | concentration of interleukin-1-beta (interleukin-1-beta) | diastolic blood pressure dropped by average of [2] | lowering of serum triglycerides [2] | systolic blood pressure dropped by average of [2] | other results
1 | COc1cc(CCO)ccc1O [homovanillic alcohol] |  |  |  |  | antioxidant potency [1]: significantly more potent antioxidant than the other phenolics
2 | C/C=C1/[C@H](O[C@@H]2O[C@H](CO)[C@@H](O)[C@H](O)[C@H]2O)OC=C(C(=O)OC)[C@H]1CC(=O)OCCc1ccc(O)c(O)c1 [oleuropein glycoside] | decreased |  |  |  | 
3 | C/C=C1/[C@H](O[C@@H]2O[C@H](CO)[C@@H](O)[C@H](O)[C@H]2O)OC=C(C(=O)OC)[C@H]1CC(=O)OCCc1ccc(O)c(O)c1 [Group seven, oleuropein] |  | 5% | 12% | 7% | 
4 | C=CCS[S+]([O-])CC=C (stereo not drawn) [allicin] |  |  |  |  | effect on the serum lipid profile (hyperlipidemic rabbits): beneficial effect
5 | C=CCS[S+]([O-])CC=C (stereo not drawn) [Group six, allicin] |  | 5% | 3% | 5% | decrease in LDL [2]: 6%; increase in HDL [2]: 2%
6 | O=C(O)/C=C/c1ccc(O)c(O)c1 [carreic acid] | decreased |  |  |  | 
